Reference: ChEMBL document CHEMBL1781917, “Computational aqueous solubility prediction for drug-like compounds in congeneric series” (Eur J Med Chem, 2008)

Columns and labels:
Format in all cases: physicochemical
[1] = Intrinsic solubility, log 1/S0 of the compound
[2] = Lipophilicity, log P of the compound; settings: octanol/water
[3] = Dissociation constant, pKa of the compound

Compound | log1/S0 [1] | logP [2] | pKa [3]
COc1cnc(NS(=O)(=O)c2ccc(N)cc2)nc1 | 3.63 | 0.46 | –
CC(C)C(NC(=O)Cn1c(-c2ccccc2)cc2c(=O)n(CC(N)=O)c(=O)[nH]c2c1=O)C(=O)C(F)(F)F (stereo unspecified) | 3.6 | – | –
CC(C)C(NC(=O)Cn1c(-c2ccccc2)cc2c(=O)n(C)c(=O)[nH]c2c1=O)C(=O)C(F)(F)F (stereo unspecified) | 4.03 | – | –
COc1ccc(Cn2c(=O)[nH]c3c(=O)n(CC(=O)NC(C(=O)C(F)(F)F)C(C)C)c(-c4ccccc4)cc3c2=O)cc1 (stereo unspecified) | 3.4 | – | –
CCOCCn1c(=O)[nH]c2c(=O)n(CC(=O)NC(C(=O)C(F)(F)F)C(C)C)c(-c3ccccc3)cc2c1=O (stereo unspecified) | 4.83 | – | –
CC(C)C(NC(=O)Cn1c(-c2ccccc2)cc2c(=O)n(CCN3CCOCC3)c(=O)[nH]c2c1=O)C(=O)C(F)(F)F (stereo unspecified) | 3.44 | – | 7.04
COC(OC)n1c(=O)[nH]c2c(=O)n(CC(=O)NC(C(=O)C(F)(F)F)C(C)C)c(-c3ccccc3)cc2c1=O (stereo unspecified) | 3.11 | – | –
CNC(=O)Cn1c(=O)[nH]c2c(=O)n(CC(=O)NC(C(=O)C(F)(F)F)C(C)C)c(-c3ccccc3)cc2c1=O (stereo unspecified) | 3.73 | – | –
O=C1CN=C(c2ccccc2Cl)c2cc(Cl)ccc2N1 [DELORAZEPAM] | 3.97 | – | –
CN1C(=O)CN=C(c2ccccc2)c2cc(Cl)ccc21 [DIAZEPAM] | 3.83 | – | –
CN1CCN=C(c2ccccc2)c2cc(Cl)ccc21 [MEDAZEPAM] | 4.41 | – | –
Nc1ccc(S(=O)(=O)Nc2ncccn2)cc1 [SULFADIAZINE] | 3.67 | -0.13 | –
COc1ncnc(NS(=O)(=O)c2ccc(N)cc2)c1OC [SULFADOXINE] | 3.59 | 1.06 | –
Cc1ccnc(NS(=O)(=O)c2ccc(N)cc2)n1 [SULFAMERAZINE] | – | 0.13 | –
Cc1cc(C)nc(NS(=O)(=O)c2ccc(N)cc2)n1 [SULFAMETHAZINE] | – | 0.89 | –
COc1ccc(NS(=O)(=O)c2ccc(N)cc2)nn1 [SULFAMETHOXYPYRIDAZINE] | 2.55 | 0.4 | –
COc1cc(NS(=O)(=O)c2ccc(N)cc2)nc(C)n1 [SULFAMETOMIDINE] | 3.05 | – | –
Cc1cc(NS(=O)(=O)c2ccc(N)cc2)nc(C)n1 [SULFISOMIDINE] | 2.78 | -0.3 | –
Cc1noc(NS(=O)(=O)c2ccc(N)cc2)c1C [SULFISOXAZOLE] | 3.45 | 1.15 | –
